Source: US11254654B2, “Heterochromatin gene repression inhibitors” (The University of North Carolina at Chapel Hill, priority 2017, dated 2022)
Where a name gives a salt, the structure may show the parent alone.

Tested on: H3K9me2/3
Assay: Global H3K9me2/3 western blot of acid extracted histones
Type: cell-based, mouse
Conditions: 10 μM compound, 48 hours
Description: CiA:Oct4 N118/N163 cells were grown to confluency as described above in standard gelatin coated 6 well tissue culture plates. Media was aspirated and the cells were washed with 2 mL of PBS. The PBS was removed and the cells were trypsinized with 0.25% trypsin-EDTA until a single cell suspension was generated. Cells were transferred to a conical tube and pelleted at 300×g for 5 min. Supernatant was removed and the cells were washed with PBS and centrifuged at 300×g for 5 min. The PBS supernatant was removed. Nuclei were collected from the cells by resuspending the pellet in lysis buffer containing (50 mM HEPES pH 8.0, 140 mM NaCl, 1 mM EDTA, 10% glycerol, 0.5% NP40, 0.25% Triton X100). Cells were incubated in lysis buffer on ice for 10 min. Nuclei were pelleted at 1200×g for 5 min at 4° C. and the supernatant was removed. […]
SDS-PAGE sample gels were transferred to Millipore Immobilon-FL PVDF membranes either by semi-wet or wet transfer according to Bio-Rad procedure. […] Western blot membranes were imaged using the Licor Odyssey scanner and data analyzed using Image Studio v5.2 software.
HP1 gene repression and silencing is mediated by H3K9me3 deposition. […] Total extracted histone proteins were quantified by Bradford Coomassie and equal total protein was loaded per sample for gel electrophoresis and subsequent western blot analysis. […]

COc1cc2nc(N3CCCC3)nc(N[C@H]3CCCNC3)c2cc1OC [compound 1, (S)-6,7-Dimethoxy-N-(Piperidin-3-yl)-2-(Pyrrolidin-1-yl)Quinazolin-4-Amine Trifluoroacetic Acid Salt]
Global H3K9me2/3 levels normalized to histone H4: roughly equivalent decreases in H3K9 methylation
